Reference: patent publication US20240287046A1, “COMPOUNDS AND RADIOLIGANDS FOR TARGETING NEUROTENSIN RECEPTOR AND USES THEREOF” (Full-Life Technologies HK Limited, priority 2022, published 2024)

Tests used:
[1] = tested on: ASPC-1 tumor-bearing mice; assay: Biodistribution of radionuclide labeled complexes in ASPC-1 tumor-bearing mice; type: in vivo, BALB/c nude mice
How it was run: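 BALB/c nude mice bore subcutaneous flank xenografts from ~4×10^6 NTSR-1-expressing cells, grown 2-4 weeks to ~0.05-0.50 g. Labeled compound, ~30-50 μCi (30-250 μCi/nmol specific activity) in 0.9% NaCl, was given by tail vein; organs were excised, weighed and γ-counted at various times for % ID and % ID/g.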

[2] = tested on: pancreatic cancer patients; details: human study; cited from earlier work

% ID/g (1 h) Blood ([1]; Blood, 1 h): 13.87 ± 0.17 % ID/g
% ID/g (4 h) Blood ([1]; Blood, 4 h): 4.46 ± 0.64 % ID/g
% ID/g (24 h) Blood ([1]; Blood, 24 h): 0.31 ± 0.1 % ID/g
% ID/g (72 h) Blood ([1]; Blood, 72 h): 0.09 ± 0.01 % ID/g
% ID/g (1 h) Femur ([1]; Femur, 1 h): 1.34 ± 0.23 % ID/g
% ID/g (4 h) Femur ([1]; Femur, 4 h): 0.89 ± 0.11 % ID/g
% ID/g (24 h) Femur ([1]; Femur, 24 h): 0.22 ± 0.13 % ID/g
% ID/g (72 h) Femur ([1]; Femur, 72 h): 0.12 ± 0.03 % ID/g
% ID/g (1 h) Heart ([1]; Heart, 1 h): 4.83 ± 1.1 % ID/g
% ID/g (4 h) Heart ([1]; Heart, 4 h): 1.72 ± 0.18 % ID/g
% ID/g (24 h) Heart ([1]; Heart, 24 h): 0.37 ± 0.07 % ID/g
% ID/g (72 h) Heart ([1]; Heart, 72 h): 0.16 ± 0.04 % ID/g
% ID/g (1 h) Intestine ([1]; Intestine, 1 h): 1.98 ± 0.63 % ID/g
% ID/g (4 h) Intestine ([1]; Intestine, 4 h): 1.62 ± 0.41 % ID/g
% ID/g (24 h) Intestine ([1]; Intestine, 24 h): 0.44 ± 0.11 % ID/g
% ID/g (72 h) Intestine ([1]; Intestine, 72 h): 0.15 ± 0.06 % ID/g
% ID/g (1 h) Kidney ([1]; Kidney, 1 h): 3.34 ± 1.53 % ID/g
% ID/g (4 h) Kidney ([1]; Kidney, 4 h): 2.6 ± 0.93 % ID/g
% ID/g (24 h) Kidney ([1]; Kidney, 24 h): 1.36 ± 0.42 % ID/g
% ID/g (72 h) Kidney ([1]; Kidney, 72 h): 0.46 ± 0.08 % ID/g
% ID/g (1 h) Liver ([1]; Liver, 1 h): 2.01 ± 1.1 % ID/g
% ID/g (4 h) Liver ([1]; Liver, 4 h): 2.51 ± 0.12 % ID/g
% ID/g (24 h) Liver ([1]; Liver, 24 h): 1.53 ± 0.93 % ID/g
% ID/g (72 h) Liver ([1]; Liver, 72 h): 0.99 ± 0.37 % ID/g
% ID/g (1 h) Lung ([1]; Lung, 1 h): 3.67 ± 2.25 % ID/g
% ID/g (4 h) Lung ([1]; Lung, 4 h): 1.92 ± 0.99 % ID/g
% ID/g (24 h) Lung ([1]; Lung, 24 h): 0.69 ± 0.14 % ID/g
% ID/g (72 h) Lung ([1]; Lung, 72 h): 0.23 ± 0.06 % ID/g
% ID/g (1 h) Muscle ([1]; Muscle, 1 h): 0.93 ± 0.21 % ID/g
% ID/g (4 h) Muscle ([1]; Muscle, 4 h): 0.31 ± 0.1 % ID/g
% ID/g (24 h) Muscle ([1]; Muscle, 24 h): 0.1 ± 0.05 % ID/g
% ID/g (72 h) Muscle ([1]; Muscle, 72 h): 0.06 ± 0.03 % ID/g
% ID/g (1 h) Pancreas ([1]; Pancreas, 1 h): 0.8 ± 0.47 % ID/g
% ID/g (4 h) Pancreas ([1]; Pancreas, 4 h): 0.27 ± 0.06 % ID/g
% ID/g (24 h) Pancreas ([1]; Pancreas, 24 h): 0.1 ± 0.02 % ID/g
% ID/g (72 h) Pancreas ([1]; Pancreas, 72 h): 0.07 ± 0.03 % ID/g
% ID/g (1 h) Spleen ([1]; Spleen, 1 h): 1.25 ± 0.78 % ID/g
% ID/g (4 h) Spleen ([1]; Spleen, 4 h): 0.49 ± 0.04 % ID/g
% ID/g (24 h) Spleen ([1]; Spleen, 24 h): 0.35 ± 0.3 % ID/g
% ID/g (72 h) Spleen ([1]; Spleen, 72 h): 0.34 ± 0.1 % ID/g
% ID/g (1 h) Stomach ([1]; Stomach, 1 h): 1.35 ± 0.42 % ID/g
% ID/g (4 h) Stomach ([1]; Stomach, 4 h): 0.6 ± 0.23 % ID/g
% ID/g (24 h) Stomach ([1]; Stomach, 24 h): 0.15 ± 0.04 % ID/g
% ID/g (72 h) Stomach ([1]; Stomach, 72 h): 0.05 ± 0 % ID/g
% ID/g (1 h) Tumor ([1]; Tumor, 1 h): 10.34 ± 5.66 % ID/g
% ID/g (4 h) Tumor ([1]; Tumor, 4 h): 16.13 ± 4.47 % ID/g
% ID/g (24 h) Tumor ([1]; Tumor, 24 h): 12.6 ± 3.52 % ID/g
% ID/g (72 h) Tumor ([1]; Tumor, 72 h): 8.03 ± 5.76 % ID/g
Structure (SMILES): COc1cccc(OC)c1-c1cc(C(=O)NC2(C(=O)O)C3CC4CC(C3)CC2C4)nn1-c1ccc(C(=O)N(C)CCCN(C)CCCN(C)C(=O)CN2CCN(CC(=O)[O-])CCN(CC(=O)[O-])CCN(CC(=O)[O-])CC2)cc1C(C)C.[177Lu+3] (stereo not shown) [^177Lu-C-2, reference compound]
dose limiting organ [2]: kidney
